Results: US20220340764A1, “HYDROPHOBIC AND OLEOPHOBIC SURFACES AND USES THEREOF” (Technion Research & Development Foundation Limited, priority 2012, published 2022)

What was measured:
[1] = Static contact angle (wettability) of wax-coated surfaces, Attension Theta tensiometer; format: physicochemical; set-up: C.A. Cyclohexane / C.A. hexadecane / C.A. Water / C.A. Glycerol / C.A. Ethylene Glycol / C.A. Benzyl Chloride / C.A. Clorobenzene: unit not given here; details: for C.A. Ethylene Glycol: liquid Ethylene Glycol; for C.A. Glycerol: liquid Glycerol; for C.A. Water: liquid Water; for C.A. Benzyl Chloride: liquid Benzyl Chloride; for C.A. Clorobenzene: liquid Clorobenzene; for C.A. Cyclohexane: liquid Cyclohexane; for C.A. hexadecane: liquid hexadecane
Source text: Typically, but not exclusively, in order to measure the static contact angle, a drop of liquid is formed on the tip of a hypodermic needle attached to a screw syringe. The syringe is fastened to a stand which reduces any irregularities that are produced by manual drop deposition. The substrate is then raised until it touches the drop using the Y control of the stage. The drop is the then brought into the field of view and onto the focal point of the microscope by x-y translation of the stage and image is captured. The static contact angle is calculated by methods known in the art. An exemplary methodology and system for measuring a static contact angle in described in Example s in the Examples section that follows.
The wettability of the surfaces was characterized using water contact angle (C.A.) measurements recorded with an Attension Theta tensiometer. The water wettability measurements were performed with a constant high-purity water drop volume of 7 μL.
Oil contact angles were determined for the following liquids: Glycerol, ethylene glycol, olive oil, benzyl chloride, clorobenzene, cyclohexane and hexadecane, using an Attension Theta tensiometer with approximately 8 μL liquid drops.
Time-dependent contact angle measurements were performed during a period of two weeks.
(§1) Contact angles and RMS roughness were measured as described in Example 2 hereinabove.

B. cereus 407 biofilms = test: Biofilm formation on wax-coated glass substrates, LIVE/DEAD staining, CLSM; format: cell-based, Bacillus cereus; details: glass substrate with thermally evaporated wax, in comparison to control glass surface; FIGS. 7A-7E
Method: Bacillus cereus 407 and ATCC 10987 stains were obtained from Michel Gohar's lab collection (INRA, France).
(§2) For biofilm generation, bacteria were grown to stationary phase in LB (Lysogeny broth) medium at 37° C. in shaking culture. The generated cultures were seeded (by dilution 1:100) into sterile polystyrene multidishes containing different substrates and inoculated into fresh media (37° C., 5 95% air/5% CO2 (v/v) statically without agitation.
(§3) To visualize the constructed biofilms, the substrates were removed from the wells, washed with PBS buffer and stained with FilmTracer™ LIVE/DEAD Biofilm Viability Kit (Molecular Probes, OR) according to the manufacturer's protocol. The stained samples were observed using an Olympus IX81 confocal laser scanning microscope (CLSM, Japan). Live cells were stained green, while dead cells were stained red. Fluorescence emission of the stained samples was measured using an Olympus IX81 CLSM equipped with 488-nm argon-ion and 543-nm helium-neon lasers.
(§4) Two different biofilm forming pathogenic bacteria, B. cereus (Gram positive) and P. aeruginosa (Gram negative), which are often encountered in clinical and industrial settings, were tested for their ability to form biofilm on glass substrates having thermally evaporated thereon the following wax materials: C24F50, C36H74, C40H82 and C44H90.

P. aeruginosa biofilm = test: as above; format: cell-based, Pseudomonas aeruginosa PA14; details: glass substrate with thermally evaporated wax; FIGS. 8A-E
Method: Pseudomonas aeruginosa PA14 was obtained from Shlomo Sela's lab strain collection (Agricultural Research Organization, Israel).
as §2, §3, §4

[2] = RMS roughness of wax-coated surfaces by confocal microscopy; format: physicochemical; details: spray coated on Si wafer, 5 seconds×4 cycles; wax solution
Method: RMS roughness (Rq) is typically calculated according to the following formula: […]
Confocal microscopy (Leica DCM3D) was used for roughness measurements. Time-dependent measurements were performed on counterpart samples having non-fluorinated wax coatings that were used for XRD time-dependent measurements. In situ time-resolved confocal microscopy was used for observation of the change in surface roughness over a constant 100 μm×100 μm area for duration of 160 hours. A topographical image was collected every hour. These experiments encompassed the same duration and time intervals as the time-dependent XRD measurements hereinabove.
Similar time-dependent measurements were performed for samples coated with fluorinated wax, maintained at a temperature of 90° C., during 60 hours. These experiments were supported by time-dependent XRD measurements performed at 90° C. during 60 hours, with 1 hour time intervals.
as §1

[3] = spray coated on Si wafer, 5 seconds×4 cycles, wax solution
[4] = thermally-evaporated wax on Silicon substrate

SMILES: CCCCCCCCCCCCCCCCCCCCCCCCCCCCCCCCCCCCCCCCCCCC [C44, tetratetracontane]
- C.A. Ethylene Glycol [1, 3]: 60
- C.A. Glycerol [1, 3]: 96
- C.A. Water [1, 3]: 96
- C.A. Benzyl Chloride [1, 4]: Fully wetted
- C.A. Clorobenzene [1, 4]: Fully wetted
- C.A. Cyclohexane [1, 4]: Fully wetted
- C.A. Ethylene Glycol [1, 4]: 103
- C.A. Glycerol [1, 4]: 130
- C.A. Water [1, 4]: 161
- C.A. hexadecane [1, 4]: Fully wetted
- B. cereus biofilm formation on coated substrate (B. cereus 407 biofilms): could not adhere successfully to form confluent biofilms
- P. aeruginosa biofilm formation on coated substrate (P. aeruginosa biofilm): substantially prevented the biofilm formation

SMILES: FC(F)(F)C(F)(F)C(F)(F)C(F)(F)C(F)(F)C(F)(F)C(F)(F)C(F)(F)C(F)(F)C(F)(F)C(F)(F)C(F)(F)C(F)(F)C(F)(F)C(F)(F)F [C15, perfluoropentadecane]
- C.A. Ethylene Glycol [1, 3]: 59
- C.A. Glycerol [1, 3]: 110
- C.A. Water [1, 3]: 114
- Roughness (RMS) [2]: 0.12 μm

SMILES: CCCCCCCCCCCCCCCCCCCCCCCCCCCCCCCCCCCC [C36, hexatriacontane]
- C.A. Ethylene Glycol [1, 3]: 58
- C.A. Glycerol [1, 3]: 64
- C.A. Water [1, 3]: 75
- contact angle of a water drop ([1]; thermally-evaporated on gold surface, maintained at room temperature for a week): 165 °
- C.A. Benzyl Chloride [1, 4]: Fully wetted
- C.A. Clorobenzene [1, 4]: Fully wetted
- C.A. Cyclohexane [1, 4]: Fully wetted
- C.A. Ethylene Glycol [1, 4]: 121
- C.A. Glycerol [1, 4]: 133
- C.A. Water [1, 4]: 171
- C.A. hexadecane [1, 4]: Fully wetted
- B. cereus biofilm formation on coated substrate (B. cereus 407 biofilms): Less significant inhibition of biofilm formation
- Roughness (RMS) [2]: 0.07-0.1 μm
